In USRE39634E1, “Bisarylimidazoly fatty acid amide hydrolase inhibitors” (Bristol-Myers Squibb Company, priority 2001, dated 2007):

Columns and labels:
[1] = molecular target: T1, human FAAH (Homo sapiens, UniProt O00519); test: Determination of FAAH activity (membrane homogenates of H4-FAAH cells, [3H]-anandamide hydrolysis); format: biochemical; conditions: transfected human FAAH, H4-FAAH cell membranes, 10 μM anandamide, room temperature, one hour
T1 construct: expressed in transfected cells; host or cells: H4 cells stably transfected with human FAAH (Geneticin selection); crude membrane homogenates
T1 sequence (O00519 1-579): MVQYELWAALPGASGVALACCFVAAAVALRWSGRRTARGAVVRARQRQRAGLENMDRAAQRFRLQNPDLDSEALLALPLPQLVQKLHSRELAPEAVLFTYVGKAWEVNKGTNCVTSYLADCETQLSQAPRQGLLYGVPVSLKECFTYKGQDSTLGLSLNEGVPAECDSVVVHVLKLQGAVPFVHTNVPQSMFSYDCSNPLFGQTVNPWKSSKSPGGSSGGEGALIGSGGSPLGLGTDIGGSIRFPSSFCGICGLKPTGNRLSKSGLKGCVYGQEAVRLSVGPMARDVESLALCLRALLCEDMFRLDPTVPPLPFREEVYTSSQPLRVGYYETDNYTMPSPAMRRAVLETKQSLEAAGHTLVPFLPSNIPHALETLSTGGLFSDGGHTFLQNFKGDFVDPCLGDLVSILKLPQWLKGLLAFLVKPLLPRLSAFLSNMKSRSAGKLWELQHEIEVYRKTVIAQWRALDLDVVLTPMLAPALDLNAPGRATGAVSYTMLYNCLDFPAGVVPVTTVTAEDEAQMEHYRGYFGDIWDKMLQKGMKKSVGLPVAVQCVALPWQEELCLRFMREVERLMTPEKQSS
Method: Homogenates of crude membranes were prepared from H4 cells that express transfected human FAAH (H4-FAAH cells). Briefly, cells were grown in DMEM supplemented with 10% FBS and Geneticin at a final concentration of 500 μg/ml (Gibco BRL, Rockville, Md.). Confluent cultures of H4-FAAH cells were rinsed twice with phosphate-buffered saline [138 mM NaCl, 4.1 mM KCl, 5.1 mM Na2PO4, 1.5 mM KH2PO4 (pH 7.5), 37° C.] and incubated for 5-10 min. at 4° C. in lysis buffer [1 mM sodium bicarbonate]. Cells were transferred from plates to polypropylene tubes (16×100 mm), homogenized and centrifuged at 32,000×g for 30 min. Pellets were resuspended by homogenization in lysis buffer and centrifuged at 32,000×g for 30 min. Pellets were resuspended in lysis buffer (15-20 μg protein/ml) then stored at −80° C. until needed. On the day of an experiment, membranes were diluted to 2.67 μg protein/ml in 125 mM Tris-Cl, pH 9.0
Activity of FAAH was measured using a modification of the method described by Omeir et al., 1995 (Life Sci 56:1999, 1995). Membrane homogenates (240 ng protein) were incubated at room temperature for one hour with 1.67 nM anandamide [ethanolamine 1-^3H] (American Radiolabeled Chemical Inc., St Louis, Mo.) and 10 μM anandamide (Sigma/RBI, St. Louis, Mo.) in the absence and presence of inhibitors. The reaction was stopped by the addition of 1 volume of a solution of methanol and dichloroethane (1:1). The mixture was shaken and then centrifuged at 1000×g for 15 min. to separate the aqueous and organic phases. An aliquot of the aqueous phase, containing [^3H]-ethanolamine was withdrawn and counted by scintillation spectroscopy. Data were expressed as the percentage of [^3H]-ethanolamine formed versus vehicle, after subtraction of the background radioactivity determined in the presence of 10 μM arachidonyl trifluoromethyl ketone (ATFMK), an inhibitor of FAAH. IC50 values were determined using a four-parameter logistic equation for dose-response curves.

[2] = system: animals; test: Hargreaves Test (acute thermal pain); format: in vivo; conditions: FIG. 2
Excerpt: FIG. 2 illustrates results from the Hargreaves Test used for measuring acute thermal pain. The single asterisk (*) applies when p is less than 0.05 whereas the double asterisk (**) applies when p is less than 0.01. n=6.

[3] = system: animals with a neuropathic injury; test: Chung model of neuropathic pain; format: in vivo
Excerpt: FIG. 3 illustrates results from the Chung Model used for measuring neuropathic pain. The single asterisk (*) applies when p is less than 0.05 whereas the double asterisk (**) applies when p is less than 0.01. n=9-10.

[4] = system: rat; test: Rat formalin test (acute and chronic chemo-induced pain); format: in vivo
Method: FIG. 1A illustrates results from a rat formalin model used for testing acute chemo-induced pain. The single asterisk (*) applies when p is less than 0.05.
FIG. 1B illustrates results from a rat formalin model used for testing chronic chemo-induced pain. The single asterisk (*) applies when p is less than 0.05.
In FIG. 1., example 1, was active in phase I (acute phase) and phase II (chronic phase) of the rat formalin test. In animals that received 25 mg/kg, i.v, of Example 1, the number of paw flinches was reduced by nearly 40% in the first 10 minutes after administration of formalin. Paw flinches were reduced by approximately 30% over the following 50 minutes.

Cc1nc(-c2ccccc2)c(-c2ccccc2)n1CCCCCCNC(=O)Oc1ccccc1F [Example 1, [6-(2-Methyl-4,5-diphenyl-imidazol-1-yl)-hexyl]-carbamic acid 2-fluoro-phenyl ester]
IC50 [1]: < 10 nM
latency to paw withdrawal [2]: increased significantly
onset of anti-neuropathic effect ([3]; 20 mg/kg, versus 100 mg/kg gabapentin): earlier onset of action compared to 100 mg/kg gabapentin
threshold for withdrawal of the injured paw ([3]; light touch stimulus, FIG. 3): increased (toward normal) in a dose-dependent fashion
reduction of number of paw flinches ([4]; 25 mg/kg, i.v., first 10 minutes after administration of formalin): ~40%
reduction of paw flinches ([4]; 25 mg/kg, i.v., following 50 minutes): approximately 30%
activity in phase I (acute phase) and phase II (chronic phase) of the rat formalin test ([4]; FIG. 1): active

Cc1nc(-c2ccccc2)c(-c2ccccc2)n1CCOc1ccc(NC(=O)Oc2ccc(F)c(F)c2)cc1 [Example 52, {4-[2-(2-Methyl-4,5-diphenyl-imidazol-1-yl)-ethoxy]-phenyl}-carbamic acid 3,4-difluoro-phenyl ester]
IC50 [1]: 1000 to 10000 nM

Cc1nc(-c2ccccc2)c(-c2ccccc2)n1CCCOc1ccc(NC(=O)Oc2ccc(F)c(F)c2)cc1 [Example 55, {4-[3-(2-Methyl-4,5-diphenyl-imidazol-1-yl)-propoxy]-phenyl}-carbamic acid 3,4-difluoro-phenyl ester]
IC50 [1]: 100 to 1000 nM

Cc1nc(-c2ccccc2)c(-c2ccccc2)n1CCCOc1ccc(NC(=O)Oc2cccc(Cl)c2)cc1 [Example 59, {4-[3-(2-Methyl-4,5-diphenyl-imidazol-1-yl)-propoxy]-phenyl}-carbamic acid 3-chloro-phenyl ester]
IC50 [1]: 100 to 1000 nM

Cc1nc(-c2ccccc2)c(-c2ccccc2)n1CCCCCCCNC(=O)Oc1ccccc1 [Example 20, [7-(2-Methyl-4,5-diphenyl-imidazol-1-yl)-heptyl]-carbamic acid phenyl ester]
IC50 [1]: < 10 nM

Cc1nc(-c2ccccc2)c(-c2ccccc2)n1CCCCCCCNC(=O)Oc1ccc(C#N)cc1 [Example 27, [7-(2-Methyl-4,5-diphenyl-imidazol-1-yl)-heptyl]-carbamic acid 4-cyano-phenyl ester]
IC50 [1]: < 10 nM
